Results on seven compounds are retold here after patent US4656166A, “Antibiotic compounds derived from cephalosporins, process for their production and pharmaceutical compositions” (Sanofi, priority 1983, dated 1987).

Structures are written as SMILES. ≈ marks a conversion by molar mass, not a printed value. Read-outs that look alike come from different tables or passages of the source. A value given as a limit tells only on which side of the number the result lay.

Common to all, as to type: cell-based
Experiment [1] relates to Proteus vulgaris GN 76/C.1/3. The experiment can be described thus: MIC on strain not producing beta-lactamase, Proteus vulgaris GN 76/C.1/3 (Table IV). The note with it: GN76, not producing beta-lactamases. The method, then: (§1) To evaluate the stability of these products towards beta-lactamases, their MIC was determined on isogenic strains producing and not producing beta-lactamases.
(§2) The results are expressed in μg/ml in Table IV.

The next experiment concerns Pseudomonas RL 112. Nature of the experiment: MIC, in vitro dilution method, Pseudomonas RL 112 (Table III). The note with it: RL112. The procedure, abridged: (§3)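 Dilution-method MIC, in vitro, μg/ml.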
A further experiment has as its system Escherichia coli SOL 90. The experiment can be described thus: MIC, in vitro dilution method, Escherichia coli SOL 90 (Table III). As to conditions: SOL90; Escherichia coli SOL 90; dilution method; read-out: MIC. The method in brief: as §3
Another experiment has as its system Escherichia coli 255. The experiment can be described thus: MIC on beta-lactamase producing strain Escherichia coli 255 (Table IV). As to conditions: Escherichia coli 255, producing beta-lactamases; read-out: MIC. How it is done: as §1, §2
The test system of experiment [2] is Serrtia liquefaciens SL 1326 S. Nature of the experiment: MIC on strain not producing beta-lactamase, Serratia liquefaciens SL 1326 S (Table IV). The note with it: SL1326S, not producing beta-lactamases. How it is done: as §1, §2
For experiment [3], the system named is Proteus vulgaris RL 99 bis. Nature of the experiment: MIC, in vitro dilution method, Proteus vulgaris RL 99 bis (Table III). The note with it: RL99BIS. The method in brief: as §3
In a further experiment the test system is Escherichia coli 255/L.7. The experiment can be described thus: MIC on strain not producing beta-lactamase, Escherichia coli 255/L.7 (Table IV). The note with it: Escherichia coli 255/L.7 *, not producing beta-lactamases; read-out: MIC. How it is done: as §1, §2
In the next experiment the test system is Citrobacter RL 49. Nature of the experiment: MIC, in vitro dilution method, Citrobacter RL 49 (Table III). The note with it: RL49. The method in brief:
as §3

For a further experiment, the system named is Serratia RL 72. Nature of the experiment: MIC, in vitro dilution method, Serratia RL 72 (Table III). As to conditions: RL72. The procedure, abridged:
as §3

The next experiment relates to Klebsiella RO 30. Nature of the experiment: MIC, in vitro dilution method, Klebsiella RO 30 (Table III). As to conditions: RO30; Klebsiella RO 30; dilution method; read-out: MIC. The method in brief: as §3
Experiment [4] deals with Proteus vulgaris GN 76/C.1. The experiment can be described thus: MIC on beta-lactamase producing strain Proteus vulgaris GN 76/C.1 (Table IV). As to conditions: GN76. The method, then:
as §1, §2

Experiment [5] concerns Serrtia liquefaciens SL/326 A. The experiment can be described thus: MIC on beta-lactamase producing strain Serratia liquefaciens SL/326 A (Table IV). How it is done: as §1, §2
The subject of another experiment is Enterobacter RO 154. The experiment can be described thus: MIC, in vitro dilution method, Enterobacter RO 154 (Table III). As to conditions: RO154. The procedure, abridged: as §3
The mark [6] stands for this setting: Citrobacter RL 49, dilution method, read-out: MIC.
Setting [7] is: Enterobacter RO 154, dilution method, read-out: MIC.
Setting [8] is: Proteus vulgaris RL 99 bis, dilution method, read-out: MIC.
Where [9] appears, read: Proteus vulgaris GN 76/C.1, producing beta-lactamases, read-out: MIC.

Turning to `CC(C)(O/N=C(\C(=O)NC1C(=O)N2C(C(=O)O)=C(COC(=O)c3csc(NC(=O)CN)n3)C[S+]([O-])C12)c1csc(N)n1)C(=O)O` (centres unmarked) [42 466], the MIC (in general, the least concentration at which growth counts as inhibited) in experiment [1] is 0.0625 µg/mL (≈ 0.0913 µM); against Pseudomonas RL 112, 4 µg/mL (≈ 5.84 µM); with Escherichia coli SOL 90 it was 0.5 µg/mL (≈ 0.73 µM); with Escherichia coli 255, 0.125 µg/mL (≈ 0.183 µM); in experiment [2], not above 0.0312 µg/mL; in [3] (Proteus vulgaris) it was not above 0.125 µg/mL. Moreover, the MIC with Escherichia coli 255/L.7 was 0.125 µg/mL (≈ 0.183 µM); in the experiment with Citrobacter RL 49 (setting [6]), 0.25 µg/mL (≈ 0.365 µM); against Serratia RL 72, 2 µg/mL (≈ 2.92 µM); with Klebsiella RO 30, 0.5 µg/mL (≈ 0.73 µM); in experiment [4] (Proteus vulgaris), not above 0.0312 µg/mL; in experiment [5], 1 µg/mL (≈ 1.46 µM). Further, the MIC in the experiment with Enterobacter RO 154 (setting [7]) is 0.5 µg/mL (≈ 0.73 µM).
As for `CC(C)(O/N=C(\C(=O)NC1C(=O)N2C(C(=O)O)=C(COC(=O)c3ccc(NC(=O)CN)cc3)C[S+]([O-])C12)c1csc(N)n1)C(=O)O` (centres unmarked) [42 467], the MIC in experiment [1] was 0.0625 µg/mL (≈ 0.0922 µM); against Pseudomonas RL 112, 4 µg/mL (≈ 5.9 µM); with Escherichia coli SOL 90, 0.25 µg/mL (≈ 0.369 µM); in the experiment on Escherichia coli 255, 0.0625 µg/mL (≈ 0.0922 µM); in [2], 0.125 µg/mL (≈ 0.184 µM); in experiment [3] (Proteus vulgaris) it was not above 0.125 µg/mL. Moreover, the MIC is not above 0.0312 µg/mL in the experiment with Escherichia coli 255/L.7; not above 0.125 µg/mL with Citrobacter RL 49 (Citrobacter); 2 µg/mL (≈ 2.95 µM) against Serratia RL 72; 0.25 µg/mL (≈ 0.369 µM) in the experiment on Klebsiella RO 30; not above 0.0312 µg/mL in [4] (Proteus vulgaris); 0.125 µg/mL (≈ 0.184 µM) in experiment [5]. In addition, the MIC in the experiment with Enterobacter RO 154 (setting [7]) was 0.5 µg/mL (≈ 0.738 µM).
Take `CC(C)(O/N=C(\C(=O)NC1C(=O)N2C(C(=O)O)=C(COC(=O)CC3CCNCC3)C[S+]([O-])C12)c1csc(N)n1)C(=O)O` (centres unmarked) [42 474]: the MIC is 0.0625 µg/mL (≈ 0.0997 µM) in experiment [1]; 4 µg/mL (≈ 6.38 µM) against Pseudomonas RL 112; 0.25 µg/mL (≈ 0.399 µM) in the experiment on Escherichia coli SOL 90; 0.0625 µg/mL (≈ 0.0997 µM) in the experiment with Escherichia coli 255; not above 0.0312 µg/mL in experiment [2]; not above 0.125 µg/mL in [3] (Proteus vulgaris). Besides, the MIC in the experiment on Escherichia coli 255/L.7 is 0.0625 µg/mL (≈ 0.0997 µM); against Citrobacter RL 49 (Citrobacter) it was not above 0.125 µg/mL; against Serratia RL 72, 0.25 µg/mL (≈ 0.399 µM); in the experiment with Klebsiella RO 30 it was 0.25 µg/mL (≈ 0.399 µM); in experiment [4] (Proteus vulgaris) it was 0.0625 µg/mL (≈ 0.0997 µM); in [5], 0.125 µg/mL (≈ 0.199 µM). The compound also displayed an MIC against Enterobacter RO 154 (Enterobacter) not above 0.125 µg/mL.
Consider `CC(C)(ON=C(C(=O)NC1C(=O)N2C(C(=O)O)=C(CSC(=O)C3CCCNC3)C[S+]([O-])C12)c1csc(N)n1)C(=O)O` (centres unmarked) [compound 42074], for which the MIC in the experiment with Pseudomonas RL 112 was determined as 8 µg/mL (≈ 12.7 µM); in the experiment on Escherichia coli SOL 90 it was 1 µg/mL (≈ 1.59 µM); in the experiment on Escherichia coli 255, 0.5 µg/mL (≈ 0.795 µM); in experiment [2], 0.12 µg/mL (≈ 0.191 µM); in [3] (setting [8]), 0.5 µg/mL (≈ 0.795 µM); with Escherichia coli 255/L.7 it was 0.25 µg/mL (≈ 0.398 µM). Further, the minimal inhibitory concentration (MIC) was 0.5 µg/mL (≈ 0.795 µM) in the experiment with Citrobacter RL 49 (setting [6]); 4 µg/mL (≈ 6.36 µM) against Serratia RL 72; 0.5 µg/mL (≈ 0.795 µM) in the experiment with Klebsiella RO 30; 0.5 µg/mL (≈ 0.795 µM) in experiment [4] (setting [9]); 0.25 µg/mL (≈ 0.398 µM) in experiment [5]; 8 µg/mL (≈ 12.7 µM) with Enterobacter RO 154 (setting [7]).
With `CC(C)(ON=C(C(=O)NC1C(=O)N2C(C(=O)O)=C(CSC(=O)C3CCC(CN)CC3)C[S+]([O-])C12)c1csc(N)n1)C(=O)O` (centres unmarked) [compound 42118], the minimal inhibitory concentration (MIC) in the experiment on Pseudomonas RL 112 was 8 µg/mL (≈ 12.2 µM); in the experiment on Escherichia coli SOL 90 it was 1 µg/mL (≈ 1.52 µM); in the experiment on Escherichia coli 255 it was 0.5 µg/mL (≈ 0.761 µM); in experiment [2], 0.12 µg/mL (≈ 0.183 µM); in experiment [3] (setting [8]), 0.25 µg/mL (≈ 0.381 µM); with Escherichia coli 255/L.7, 0.25 µg/mL (≈ 0.381 µM). Moreover, the MIC in the experiment with Citrobacter RL 49 (setting [6]) came to 0.5 µg/mL (≈ 0.761 µM); in the experiment with Serratia RL 72 it was 4 µg/mL (≈ 6.09 µM); in the experiment with Klebsiella RO 30, 0.5 µg/mL (≈ 0.761 µM); in [4] (setting [9]), 0.5 µg/mL (≈ 0.761 µM); in experiment [5] it was 0.25 µg/mL (≈ 0.381 µM); with Enterobacter RO 154 (setting [7]) it was 16 µg/mL (≈ 24.4 µM).
For the compound `CC(C)(ON=C(C(=O)NC1C(=O)N2C(C(=O)O)=C(CSC(=O)c3cccc(CN)c3)C[S+]([O-])C12)c1csc(N)n1)C(=O)O` (centres unmarked) [compound 42531], the minimum inhibitory concentration (MIC) in the experiment on Pseudomonas RL 112 is 8 µg/mL (≈ 12.3 µM); in the experiment on Escherichia coli SOL 90, 0.5 µg/mL (≈ 0.768 µM); in the experiment with Escherichia coli 255, 0.125 µg/mL (≈ 0.192 µM); in [2], 0.0625 µg/mL (≈ 0.096 µM); in experiment [3] (Proteus vulgaris) it was not above 0.125 µg/mL; with Escherichia coli 255/L.7 it was 0.0625 µg/mL (≈ 0.096 µM). In addition, the minimal inhibitory concentration (MIC) in the experiment with Citrobacter RL 49 (setting [6]) was 0.25 µg/mL (≈ 0.384 µM); against Serratia RL 72, 0.5 µg/mL (≈ 0.768 µM); in the experiment with Klebsiella RO 30, 0.25 µg/mL (≈ 0.384 µM); in experiment [4] (Proteus vulgaris), 0.0625 µg/mL (≈ 0.096 µM); in [5], 0.125 µg/mL (≈ 0.192 µM); in the experiment with Enterobacter RO 154 (setting [7]) it was 0.5 µg/mL (≈ 0.768 µM).
As for `CC(C)(ON=C(C(=O)NC1C(=O)N2C(C(=O)O)=C(CSC(=O)c3ccc(NC(=O)CN)cc3)C[S+]([O-])C12)c1csc(N)n1)C(=O)O` (centres unmarked) [compound 42664], the MIC came out at 0.25 µg/mL (≈ 0.36 µM) in [1]; 8 µg/mL (≈ 11.5 µM) against Pseudomonas RL 112; 1 µg/mL (≈ 1.44 µM) with Escherichia coli SOL 90; 0.25 µg/mL (≈ 0.36 µM) with Escherichia coli 255; 0.0625 µg/mL (≈ 0.0901 µM) in experiment [2]; 0.0625 µg/mL (≈ 0.0901 µM) with Escherichia coli 255/L.7. Besides, the MIC was 4 µg/mL (≈ 5.77 µM) with Serratia RL 72; 0.5 µg/mL (≈ 0.721 µM) in the experiment on Klebsiella RO 30; 0.125 µg/mL (≈ 0.18 µM) in experiment [4] (setting [9]); 0.25 µg/mL (≈ 0.36 µM) in experiment [5]; 4 µg/mL (≈ 5.77 µM) in the experiment on Enterobacter RO 154 (setting [7]).
